The values that follow are results of earlier work, collected in patent US10493079B2, “Stable carfilzomib formulations” (Cipla Limited, priority 2016, dated 2019).

For `CC(C)C[C@H](NC(=O)[C@H](CCc1ccccc1)NC(=O)CN1CCOCC1)C(=O)N[C@@H](Cc1ccccc1)C(=O)N[C@@H](CC(C)C)C(=O)[C@@]1(C)CO1` [carfilzomib], the aqueous solubility result was “extremely low”.
